The values that follow are results of earlier work, collected in patent publication US20030148386A1, “Method for drug design using comparative molecular field analysis (CoMFA) extended for multi-mode/multi-species ligand binding and disposition” (priority 2001, published 2003).

In the data set the target is T1, aryl hydrocarbon (Ah) receptor (Rattus norvegicus, UniProt P41738).
T1 sequence (P41738 10-853): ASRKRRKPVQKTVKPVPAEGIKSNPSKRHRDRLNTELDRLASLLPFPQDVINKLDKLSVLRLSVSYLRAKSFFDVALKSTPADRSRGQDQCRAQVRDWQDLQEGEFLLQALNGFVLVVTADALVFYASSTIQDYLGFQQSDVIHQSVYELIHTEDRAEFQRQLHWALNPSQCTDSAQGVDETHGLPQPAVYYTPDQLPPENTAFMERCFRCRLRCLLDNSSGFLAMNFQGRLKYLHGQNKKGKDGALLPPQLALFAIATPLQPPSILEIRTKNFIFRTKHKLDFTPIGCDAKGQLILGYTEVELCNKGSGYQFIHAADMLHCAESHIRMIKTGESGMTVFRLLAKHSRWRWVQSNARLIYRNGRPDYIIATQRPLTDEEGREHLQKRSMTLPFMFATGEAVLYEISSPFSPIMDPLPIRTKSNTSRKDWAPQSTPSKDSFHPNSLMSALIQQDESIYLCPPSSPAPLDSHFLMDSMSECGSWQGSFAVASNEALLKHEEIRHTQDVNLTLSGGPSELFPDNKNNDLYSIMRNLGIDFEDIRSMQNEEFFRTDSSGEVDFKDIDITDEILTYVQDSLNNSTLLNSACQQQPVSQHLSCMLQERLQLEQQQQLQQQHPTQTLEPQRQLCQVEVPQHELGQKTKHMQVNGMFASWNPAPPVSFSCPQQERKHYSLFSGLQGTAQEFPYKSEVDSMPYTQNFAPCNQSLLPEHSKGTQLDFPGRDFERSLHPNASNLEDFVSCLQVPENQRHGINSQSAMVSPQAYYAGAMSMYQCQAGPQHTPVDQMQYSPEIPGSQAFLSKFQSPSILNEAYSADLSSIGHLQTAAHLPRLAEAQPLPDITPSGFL
Conditions: for pEC50 observed: pEC50=-log(EC50)=logKi, EC50 in mol/L, displacement of radiolabeled TCDD.

Turning to `Clc1cc2c(oc3c(Cl)c(Cl)c(Cl)cc32)c(Cl)c1Cl` [Compound 34], the pEC50 observed is reported as 7.328 ± 0.036.
For the compound `Clc1cc(Cl)c2c(c1)oc1cc(Cl)c(Cl)c(Cl)c12` [Compound 23], the pEC50 observed is reported as 6.398.
As to `Clc1cc2oc3c(Cl)c(Cl)c(Cl)c(Cl)c3c2cc1Cl` [Compound 31], the pEC50 observed is 6.638.
For `Clc1cc2c(cc1Cl)Oc1cc(Cl)c(Cl)cc1O2` [TCDD, 2,3,7,8-tetrachloro dibenzodioxin, reference compound], the “binding affinity to the Ah receptor (in words)” value is listed as “highest binding affinity”.
In the case of `Clc1ccc2c(oc3c(Cl)cc(Cl)c(Cl)c32)c1Cl` [Compound 24], the pEC50 observed was 7.169.
On to `Clc1cc2oc3c(Cl)c(Cl)c(Cl)cc3c2cc1Cl` [Compound 29], for which the “binding affinity to the Ah receptor (in words)” value was “highest binding affinity” and the pEC50 observed is 7.824 ± 0.028.
`Clc1cc(Cl)c2oc3cc(Cl)c(Cl)cc3c2c1` [Compound 19]: the pEC50 observed is 6.658.
For `Clc1cc2oc3c(Cl)cccc3c2c(Cl)c1Cl` [Compound 13], the pEC50 observed is reported as 6.456.
For the compound `Clc1cc2oc3c(Cl)c(Cl)cc(Cl)c3c2cc1Cl` [Compound 28], the pEC50 observed is listed as 6.699.
For `Clc1ccc2oc3c(Cl)c(Cl)c(Cl)cc3c2c1` [Compound 18], the pEC50 observed is reported as 6.699.
In the case of `Clc1ccc2oc3c(Cl)c(Cl)c(Cl)c(Cl)c3c2c1` [Compound 21], the pEC50 observed is 6.921.
On to `Clc1cc(Cl)c2c(c1)oc1ccc(Cl)cc12` [Compound 09], for which the pEC50 observed is on record as 4.071.
Regarding `Clc1cc(Cl)c2c(c1)oc1c(Cl)c(Cl)c(Cl)cc12` [Compound 30], the pEC50 observed is reported as 6.699.
On to `Clc1cc2oc3c(Cl)cc(Cl)c(Cl)c3c2cc1Cl` [Compound 26], for which the pEC50 observed is on record as 5.886.
As to `Clc1cc2oc3cc(Cl)c(Cl)c(Cl)c3c2cc1Cl` [Compound 22], the pEC50 observed is 7.128 ± 0.105.
Regarding `Clc1ccc2c(c1)oc1c(Cl)c(Cl)c(Cl)cc12` [Compound 17], the pEC50 observed is 7.602.
Take `Clc1ccc2c(c1)oc1ccccc12` [Compound 03]: the pEC50 observed was 4.377 ± 0.058.
For the compound `Clc1cc(Cl)c2c(c1)oc1c(Cl)cccc12` [Compound 08], the pEC50 observed was 5.357.
Turning to `Clc1cc2c(oc3c(Cl)cc(Cl)c(Cl)c32)c(Cl)c1Cl` [Compound 33], the pEC50 observed was 5.081.
Consider `Clc1ccc2c(c1)oc1cc(Cl)c(Cl)c(Cl)c12` [Compound 14], for which the pEC50 observed was 6.959.
On to `Clc1cc2c(oc3cc(Cl)c(Cl)c(Cl)c32)c(Cl)c1Cl` [Compound 32], for which the pEC50 observed is on record as 6.569 ± 0.137.
In the case of `Clc1cc(Cl)c2oc3c(Cl)cc(Cl)c(Cl)c3c2c1` [Compound 25], the pEC50 observed was 5.509.
In the case of `Clc1cc2oc3cc(Cl)c(Cl)cc3c2cc1Cl` [Compound 20], the pEC50 observed is given as 7.387 ± 0.059.
`Clc1cc2c(oc3c(Cl)cccc32)c(Cl)c1Cl` [Compound 16]: the pEC50 observed is recorded as 6.456.
With `Clc1cc(Cl)c2c(c1)oc1c(Cl)cc(Cl)c(Cl)c12` [Compound 27], the pEC50 observed is listed as 4.699.
